Data: patent publication US12643871B2, “Aryl formamide compound containing chiral sulfur oxide or salt thereof, preparation method, herbicidal composition and use thereof” (Qingdao Kingagroot Chemical Compound Co., Ltd., priority 2019, dated 2026)

Experiments:
[1] = tested on: Amaranthus retroflexus; test: Weeding effect in post-emergence stage; assay type: in vivo; settings: 250 g/ha; 2 leaf stage; 15 days after application; fresh weight control rate
Excerpt: (§1) The activity level criteria for harmful plant damage (i.e., growth control rate) are as follows: • Level 5: growth control rate is above 85%; • Level 4: growth control rate is greater than or equal to 60% and less than 85%; • Level 3: growth control rate is greater than or equal to 40% and less than 60%; • Level 2: growth control rate is greater than or equal to 20% and less than 40%; • Level 1: growth control rate is greater than or equal to 5% and less than 20%; • Level 0: growth control rate is less than 5%.
(§2) The above growth control rates are fresh weight control rates.
(§3) Experiment on weeding effect in post-emergence stage: monocotyledonous and dicotyledonous weed seeds (Descurainia sophia, Capsella bursa-pastoris, Galium aparine, Stellaria media, Lithospermum arvense, Rorippa indica, Alopecurus aequalis, Beckmannia syzigachne, Sclerochloa dura, Phleum paniculatum, Bromus japonicus, Aegilops tauschii, Phalaris arundinacea, Amaranthus retroflexus, Chenopodiaceae, Commelina communis, Sonchus arvensis, convolvulus arvensis, Cirsium setosum, Solanum nigrum, Acalypha australis, Digitaria sanguinalis, Echinochloa crusgalli, Setaria viridis, Setaria glauca, Leptochloa chinensis, Monochoria vaginalis, Sagittaria trifolia, Scirpus juncoides, Cyperus rotundus, Cyperus iria, Cyperus difformis, Fimbristylis, Portulaca oleracea, Xanthium sibiricum, Pharbitis nil) and major crop seeds (wheat, corn, rice, soybean, cotton, oilseed rape, millet, sorghum, potato, sesame, ricinus) were placed in plastic pots filled with soil, then covered with 0.5-2 cm of soil, allowed to grow in a good greenhouse environment. After 2 weeks of sowing, the test plants were treated in the 2 leaf stage. The tested compounds of the present invention were respectively dissolved in acetone, then added with Tween 80 and 1.5 liter/ha of emulsifiable concentrate of methyl oleate as synergist, diluted with a certain amount of water to obtain a solution with a certain concentration, and sprayed with a spray tower onto the plants. After the application, the plants were cultured for 15 days in the greenhouse, and then the experimental results of the weeding were counted. The doses of the used compounds were 500, 250, 125, 60, 30, 15 g/ha, and the averages were obtained by repeating for three times.

[2] = tested on: Echinochloa crusgali; test: Weeding effect in post-emergence stage; assay type: in vivo; settings: 250 g/ha; 2 leaf stage; 15 days after application; fresh weight control rate
Excerpt: as §1, §2, §3

With `CCCn1nnnc1NC(=O)c1ccc(C(F)(F)F)c([S@+]([O-])CCC)c1F` [Compound 383] the “weeding effect in post-emergence stage, activity level (growth control rate), Amaranthus retroflexus” value (“weeding effect … Amaranthus retroflexus” for short) [1] was 5 (Level 5: growth control rate is above 85%) and the “weeding effect in post-emergence stage, activity level (growth control rate), Echinochloa crusgali” value (from here on “weeding effect … Echinochloa crusgali”) [2] was 5 (Level 5: growth control rate is above 85%).
In the case of `CC[S@@+]([O-])c1c(C(F)(F)F)ccc(C(=O)Nc2nnc(C3CC3)o2)c1OC` [Compound 428], the “weeding effect … Amaranthus retroflexus” value [1] is reported as 5 (Level 5: growth control rate is above 85%) and the “weeding effect … Echinochloa crusgali” value [2] is reported as 5 (Level 5: growth control rate is above 85%).
In the case of `CC[S@@+]([O-])c1c(C(F)(F)F)ccc(C(=O)N(C(C)=O)c2nnc(C)o2)c1F` [Compound 216], the “weeding effect … Amaranthus retroflexus” value [1] is reported as 5 (Level 5: growth control rate is above 85%) and the “weeding effect … Echinochloa crusgali” value [2] is reported as 5 (Level 5: growth control rate is above 85%).
For `Cc1nnc(NC(=O)c2ccc(C(F)(F)F)c([S@+]([O-])CC(=O)OC(C)(C)C)c2F)o1` [Compound 199], the “weeding effect … Amaranthus retroflexus” value [1] was 5 (Level 5: growth control rate is above 85%) and the “weeding effect … Echinochloa crusgali” value [2] was 5 (Level 5: growth control rate is above 85%).
With `COc1c(C(=O)Nc2nnc(C)o2)ccc(C(F)(F)F)c1[S@+]([O-])CCc1ccccc1` [Compound 318] the “weeding effect … Amaranthus retroflexus” value [1] was 5 (Level 5: growth control rate is above 85%) and the “weeding effect … Echinochloa crusgali” value [2] was 5 (Level 5: growth control rate is above 85%).
With `Cc1nnc(NC(=O)c2ccc(C(F)(F)F)c([S@@+]([O-])COC(=O)C(C)(C)C)c2F)o1` [Compound 202] the “weeding effect … Amaranthus retroflexus” value [1] was 5 (Level 5: growth control rate is above 85%) and the “weeding effect … Echinochloa crusgali” value [2] was 5 (Level 5: growth control rate is above 85%).
In the case of `C=CC[S@@+]([O-])c1c(S(C)(=O)=O)ccc(C(=O)Nc2nnnn2C)c1C` [Compound 516], the “weeding effect … Amaranthus retroflexus” value [1] is reported as 5 (Level 5: growth control rate is above 85%) and the “weeding effect … Echinochloa crusgali” value [2] is reported as 5 (Level 5: growth control rate is above 85%).
`Cc1ccc(C(=O)Nc2nnnn2C)c(C)c1[S@+]([O-])C(C)C` [Compound 476] was tested, and the “weeding effect … Amaranthus retroflexus” value [1] was 5 (Level 5: growth control rate is above 85%) and the “weeding effect … Echinochloa crusgali” value [2] was 5 (Level 5: growth control rate is above 85%).
In the case of `COC(=O)C[S@@+]([O-])c1c(C(F)(F)F)ccc(C(=O)Nc2nnc(C)o2)c1F` [Compound 196], the “weeding effect … Amaranthus retroflexus” value [1] is reported as 5 (Level 5: growth control rate is above 85%) and the “weeding effect … Echinochloa crusgali” value [2] is reported as 5 (Level 5: growth control rate is above 85%).
In the case of `Cc1c(C(=O)Nc2nnnn2C)ccc(S(C)(=O)=O)c1[S@+]([O-])C(C)C` [Compound 513], the “weeding effect … Amaranthus retroflexus” value [1] is reported as 5 (Level 5: growth control rate is above 85%) and the “weeding effect … Echinochloa crusgali” value [2] is reported as 5 (Level 5: growth control rate is above 85%).
In the case of `Cc1nnc(NC(=O)c2ccc(C(F)(F)F)c([S@@+]([O-])C(=O)N(C)C)c2F)o1` [Compound 176], the “weeding effect … Amaranthus retroflexus” value [1] is reported as 5 (Level 5: growth control rate is above 85%) and the “weeding effect … Echinochloa crusgali” value [2] is reported as 5 (Level 5: growth control rate is above 85%).
With `Cc1c(C(=O)Nc2nnnn2C)ccc(S(C)(=O)=O)c1[S@@+](C)[O-]` [Compound 511] the “weeding effect … Amaranthus retroflexus” value [1] was 5 (Level 5: growth control rate is above 85%) and the “weeding effect … Echinochloa crusgali” value [2] was 5 (Level 5: growth control rate is above 85%).
With `Cc1nnc(NC(=O)c2ccc(C)c([S@+]([O-])CC(C)C)c2C)o1` [Compound 484] the “weeding effect … Amaranthus retroflexus” value [1] was 5 (Level 5: growth control rate is above 85%) and the “weeding effect … Echinochloa crusgali” value [2] was 5 (Level 5: growth control rate is above 85%).
